# Assays:
# Test in all cases: KINOMEscan
# Assay type in all cases: binding
# Conditions in all cases: read-out: % control activity remaining
# ACVR2A = target: T1, ACVR2A (Homo sapiens, UniProt P27037)
# T1 construct: purchased Eurofins DiscoverX KINOMEscan
# AKT1 = target: T2, AKT1 (Homo sapiens, UniProt P31749)
# T2 construct: purchased Eurofins DiscoverX KINOMEscan
# BIKE = target: T3, BIKE (Homo sapiens, UniProt Q9NSY1)
# T3 construct: purchased Eurofins DiscoverX KINOMEscan
# BRAF = target: T4, BRAF (Homo sapiens, UniProt P15056)
# T4 construct: purchased Eurofins DiscoverX KINOMEscan
# CDK7 = target: T5, CDK7 (Homo sapiens, UniProt P50613)
# T5 construct: purchased Eurofins DiscoverX KINOMEscan
# CDKL5 = target: T6, CDKL5 (Homo sapiens, UniProt O76039)
# T6 construct: purchased Eurofins DiscoverX KINOMEscan
# T6 sequence (O76039 1-960): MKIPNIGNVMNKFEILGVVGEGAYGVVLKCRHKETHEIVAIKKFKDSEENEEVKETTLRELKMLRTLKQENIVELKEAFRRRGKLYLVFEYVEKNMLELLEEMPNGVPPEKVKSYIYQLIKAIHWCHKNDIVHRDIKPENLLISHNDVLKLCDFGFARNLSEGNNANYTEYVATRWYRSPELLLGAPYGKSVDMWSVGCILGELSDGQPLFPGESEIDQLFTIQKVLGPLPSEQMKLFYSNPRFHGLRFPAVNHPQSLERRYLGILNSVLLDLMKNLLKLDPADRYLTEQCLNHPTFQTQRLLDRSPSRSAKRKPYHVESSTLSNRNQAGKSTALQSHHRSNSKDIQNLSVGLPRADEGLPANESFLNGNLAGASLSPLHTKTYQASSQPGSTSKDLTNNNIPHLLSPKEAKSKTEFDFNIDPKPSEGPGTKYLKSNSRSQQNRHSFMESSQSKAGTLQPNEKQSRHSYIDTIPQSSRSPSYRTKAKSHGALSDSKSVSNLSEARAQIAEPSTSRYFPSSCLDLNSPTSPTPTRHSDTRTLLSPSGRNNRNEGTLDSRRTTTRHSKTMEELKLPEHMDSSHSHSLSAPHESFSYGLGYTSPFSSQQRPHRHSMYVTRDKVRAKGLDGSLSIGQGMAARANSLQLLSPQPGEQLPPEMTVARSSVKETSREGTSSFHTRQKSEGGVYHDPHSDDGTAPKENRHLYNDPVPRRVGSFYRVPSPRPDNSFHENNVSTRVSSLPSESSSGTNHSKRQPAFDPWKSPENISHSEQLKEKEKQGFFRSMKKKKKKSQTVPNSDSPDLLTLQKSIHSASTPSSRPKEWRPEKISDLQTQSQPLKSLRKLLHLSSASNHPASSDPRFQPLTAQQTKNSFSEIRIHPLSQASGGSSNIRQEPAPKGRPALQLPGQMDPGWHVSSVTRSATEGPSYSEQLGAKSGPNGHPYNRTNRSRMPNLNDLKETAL
# DRAK1 = target: T7, DRAK1 (Homo sapiens, UniProt Q9UEE5)
# T7 construct: purchased Eurofins DiscoverX KINOMEscan
# T7 sequence (Q9UEE5 1-414): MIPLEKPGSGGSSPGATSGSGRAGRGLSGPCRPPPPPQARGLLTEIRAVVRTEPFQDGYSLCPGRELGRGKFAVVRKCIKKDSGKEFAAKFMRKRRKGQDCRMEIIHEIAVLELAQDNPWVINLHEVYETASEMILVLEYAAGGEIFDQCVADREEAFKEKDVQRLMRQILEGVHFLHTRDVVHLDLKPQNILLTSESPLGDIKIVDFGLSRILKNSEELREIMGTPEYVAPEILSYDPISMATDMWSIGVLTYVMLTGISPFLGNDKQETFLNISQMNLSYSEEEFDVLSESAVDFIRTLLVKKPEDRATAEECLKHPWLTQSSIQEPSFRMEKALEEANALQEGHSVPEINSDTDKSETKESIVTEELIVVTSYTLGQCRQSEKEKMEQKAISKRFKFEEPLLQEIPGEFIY
# FLT3(D835H) = target: T8, FLT3(D835H) (Homo sapiens, UniProt P36888, D835H)
# T8 construct: purchased Eurofins DiscoverX KINOMEscan
# T8 sequence (P36888 27-993 D835H): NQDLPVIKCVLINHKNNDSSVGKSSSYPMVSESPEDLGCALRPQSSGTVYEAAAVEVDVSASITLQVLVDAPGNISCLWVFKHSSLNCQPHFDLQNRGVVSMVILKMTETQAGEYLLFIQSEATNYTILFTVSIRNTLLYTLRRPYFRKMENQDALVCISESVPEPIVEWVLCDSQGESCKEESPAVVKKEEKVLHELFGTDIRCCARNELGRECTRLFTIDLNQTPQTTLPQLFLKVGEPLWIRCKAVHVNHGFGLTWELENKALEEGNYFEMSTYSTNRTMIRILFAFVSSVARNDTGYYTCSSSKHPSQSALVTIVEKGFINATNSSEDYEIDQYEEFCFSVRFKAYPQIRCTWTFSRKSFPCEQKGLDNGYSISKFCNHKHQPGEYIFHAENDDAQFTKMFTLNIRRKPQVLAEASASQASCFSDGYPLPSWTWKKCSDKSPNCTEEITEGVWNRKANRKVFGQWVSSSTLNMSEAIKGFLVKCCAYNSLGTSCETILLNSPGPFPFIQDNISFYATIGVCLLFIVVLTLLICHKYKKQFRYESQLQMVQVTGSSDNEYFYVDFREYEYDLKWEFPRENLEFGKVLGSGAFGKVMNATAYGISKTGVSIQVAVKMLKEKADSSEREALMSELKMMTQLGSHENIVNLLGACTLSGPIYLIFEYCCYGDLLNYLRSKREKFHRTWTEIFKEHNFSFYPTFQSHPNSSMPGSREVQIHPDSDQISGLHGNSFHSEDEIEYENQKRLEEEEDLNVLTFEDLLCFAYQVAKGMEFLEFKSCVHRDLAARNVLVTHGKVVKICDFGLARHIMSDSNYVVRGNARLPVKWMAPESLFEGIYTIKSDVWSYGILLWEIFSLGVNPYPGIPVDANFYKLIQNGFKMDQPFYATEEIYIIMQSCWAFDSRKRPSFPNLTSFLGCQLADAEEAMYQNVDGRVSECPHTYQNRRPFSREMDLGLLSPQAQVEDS
# LIMK1 = target: T9, LIMK1 (Homo sapiens, UniProt P53667)
# T9 construct: purchased Eurofins DiscoverX KINOMEscan
# MAPKAPK2 = target: T10, MAPKAPK2 (Homo sapiens, UniProt P49137)
# T10 construct: purchased Eurofins DiscoverX KINOMEscan
# QSK = target: T11, QSK (Homo sapiens, UniProt Q9Y2K2)
# T11 construct: purchased Eurofins DiscoverX KINOMEscan
# STK16 = target: T12, STK16 (Homo sapiens, UniProt O75716)
# T12 construct: purchased Eurofins DiscoverX KINOMEscan
# STK33 = target: T13, STK33 (Homo sapiens, UniProt Q9BYT3)
# T13 construct: purchased Eurofins DiscoverX KINOMEscan
# T13 sequence (Q9BYT3 whole entry): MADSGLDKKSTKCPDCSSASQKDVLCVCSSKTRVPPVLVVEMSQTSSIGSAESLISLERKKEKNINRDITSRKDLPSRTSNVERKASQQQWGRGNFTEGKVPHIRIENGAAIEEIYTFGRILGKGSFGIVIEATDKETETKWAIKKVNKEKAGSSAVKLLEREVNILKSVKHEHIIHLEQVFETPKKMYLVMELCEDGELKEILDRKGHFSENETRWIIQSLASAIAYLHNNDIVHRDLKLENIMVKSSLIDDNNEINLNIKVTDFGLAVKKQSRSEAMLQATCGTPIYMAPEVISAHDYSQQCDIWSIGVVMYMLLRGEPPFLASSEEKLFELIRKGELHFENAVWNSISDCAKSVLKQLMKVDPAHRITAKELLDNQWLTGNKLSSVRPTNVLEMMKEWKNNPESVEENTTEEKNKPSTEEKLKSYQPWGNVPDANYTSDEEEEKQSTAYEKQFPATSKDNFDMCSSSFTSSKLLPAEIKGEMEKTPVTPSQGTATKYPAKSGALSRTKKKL
# T1 sequence (P27037 20-513): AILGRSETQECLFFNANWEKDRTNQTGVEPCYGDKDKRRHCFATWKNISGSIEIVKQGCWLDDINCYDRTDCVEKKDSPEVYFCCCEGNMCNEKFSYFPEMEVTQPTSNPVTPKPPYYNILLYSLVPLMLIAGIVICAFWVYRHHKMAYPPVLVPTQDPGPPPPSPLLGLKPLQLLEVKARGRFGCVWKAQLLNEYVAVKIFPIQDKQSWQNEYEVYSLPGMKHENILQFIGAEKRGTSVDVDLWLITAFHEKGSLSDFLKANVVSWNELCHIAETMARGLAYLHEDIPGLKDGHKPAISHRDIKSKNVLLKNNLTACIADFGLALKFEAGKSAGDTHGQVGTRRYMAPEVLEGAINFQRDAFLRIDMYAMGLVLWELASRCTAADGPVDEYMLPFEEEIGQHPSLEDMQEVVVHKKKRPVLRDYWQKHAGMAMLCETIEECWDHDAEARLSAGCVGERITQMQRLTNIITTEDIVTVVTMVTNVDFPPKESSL
# T12 sequence (O75716 whole entry): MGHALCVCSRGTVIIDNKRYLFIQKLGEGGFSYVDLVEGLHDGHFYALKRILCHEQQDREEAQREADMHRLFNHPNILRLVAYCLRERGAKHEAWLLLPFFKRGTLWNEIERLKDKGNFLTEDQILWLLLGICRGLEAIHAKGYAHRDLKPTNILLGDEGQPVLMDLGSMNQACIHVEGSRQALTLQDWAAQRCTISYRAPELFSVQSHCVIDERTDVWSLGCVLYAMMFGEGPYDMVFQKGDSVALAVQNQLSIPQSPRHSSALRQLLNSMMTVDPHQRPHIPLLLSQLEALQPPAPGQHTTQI
# T9 sequence (P53667 whole entry): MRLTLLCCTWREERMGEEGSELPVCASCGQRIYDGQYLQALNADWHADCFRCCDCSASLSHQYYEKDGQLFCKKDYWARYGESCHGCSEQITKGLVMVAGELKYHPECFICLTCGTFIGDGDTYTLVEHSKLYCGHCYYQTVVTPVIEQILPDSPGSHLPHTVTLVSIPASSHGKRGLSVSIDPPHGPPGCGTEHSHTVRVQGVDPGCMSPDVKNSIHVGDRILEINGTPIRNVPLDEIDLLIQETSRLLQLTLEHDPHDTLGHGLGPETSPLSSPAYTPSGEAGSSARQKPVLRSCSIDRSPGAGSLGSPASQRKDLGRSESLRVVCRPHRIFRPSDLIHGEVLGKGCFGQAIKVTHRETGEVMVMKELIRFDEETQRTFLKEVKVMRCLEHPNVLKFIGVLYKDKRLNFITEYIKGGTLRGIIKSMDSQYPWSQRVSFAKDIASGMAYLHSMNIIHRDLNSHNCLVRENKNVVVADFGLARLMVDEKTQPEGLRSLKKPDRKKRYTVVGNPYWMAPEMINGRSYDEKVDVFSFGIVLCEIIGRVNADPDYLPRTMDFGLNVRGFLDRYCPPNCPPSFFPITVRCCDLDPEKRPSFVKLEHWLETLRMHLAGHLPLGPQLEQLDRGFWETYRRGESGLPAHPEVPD
# T5 sequence (P50613 whole entry): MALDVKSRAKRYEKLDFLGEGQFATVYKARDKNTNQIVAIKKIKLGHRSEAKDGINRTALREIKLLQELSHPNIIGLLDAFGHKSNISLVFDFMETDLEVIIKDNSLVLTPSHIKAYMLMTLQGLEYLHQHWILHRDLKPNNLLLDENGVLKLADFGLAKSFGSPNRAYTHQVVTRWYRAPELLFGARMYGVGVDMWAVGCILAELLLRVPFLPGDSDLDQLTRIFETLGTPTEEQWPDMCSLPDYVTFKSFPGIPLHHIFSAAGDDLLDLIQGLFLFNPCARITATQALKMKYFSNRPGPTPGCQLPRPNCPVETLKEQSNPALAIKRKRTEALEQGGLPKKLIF
# T10 sequence (P49137 whole entry): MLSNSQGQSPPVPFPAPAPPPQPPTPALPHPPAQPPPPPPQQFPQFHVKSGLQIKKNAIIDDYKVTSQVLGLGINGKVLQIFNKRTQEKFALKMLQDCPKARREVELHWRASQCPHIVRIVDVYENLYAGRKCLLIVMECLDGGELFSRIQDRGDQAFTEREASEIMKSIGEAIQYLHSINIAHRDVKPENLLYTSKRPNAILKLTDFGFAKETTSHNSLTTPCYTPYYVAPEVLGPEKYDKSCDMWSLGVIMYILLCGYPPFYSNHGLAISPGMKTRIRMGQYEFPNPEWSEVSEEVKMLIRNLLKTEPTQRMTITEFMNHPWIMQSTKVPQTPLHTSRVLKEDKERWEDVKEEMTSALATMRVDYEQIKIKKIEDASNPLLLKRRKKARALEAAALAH
# T3 sequence (Q9NSY1 whole entry): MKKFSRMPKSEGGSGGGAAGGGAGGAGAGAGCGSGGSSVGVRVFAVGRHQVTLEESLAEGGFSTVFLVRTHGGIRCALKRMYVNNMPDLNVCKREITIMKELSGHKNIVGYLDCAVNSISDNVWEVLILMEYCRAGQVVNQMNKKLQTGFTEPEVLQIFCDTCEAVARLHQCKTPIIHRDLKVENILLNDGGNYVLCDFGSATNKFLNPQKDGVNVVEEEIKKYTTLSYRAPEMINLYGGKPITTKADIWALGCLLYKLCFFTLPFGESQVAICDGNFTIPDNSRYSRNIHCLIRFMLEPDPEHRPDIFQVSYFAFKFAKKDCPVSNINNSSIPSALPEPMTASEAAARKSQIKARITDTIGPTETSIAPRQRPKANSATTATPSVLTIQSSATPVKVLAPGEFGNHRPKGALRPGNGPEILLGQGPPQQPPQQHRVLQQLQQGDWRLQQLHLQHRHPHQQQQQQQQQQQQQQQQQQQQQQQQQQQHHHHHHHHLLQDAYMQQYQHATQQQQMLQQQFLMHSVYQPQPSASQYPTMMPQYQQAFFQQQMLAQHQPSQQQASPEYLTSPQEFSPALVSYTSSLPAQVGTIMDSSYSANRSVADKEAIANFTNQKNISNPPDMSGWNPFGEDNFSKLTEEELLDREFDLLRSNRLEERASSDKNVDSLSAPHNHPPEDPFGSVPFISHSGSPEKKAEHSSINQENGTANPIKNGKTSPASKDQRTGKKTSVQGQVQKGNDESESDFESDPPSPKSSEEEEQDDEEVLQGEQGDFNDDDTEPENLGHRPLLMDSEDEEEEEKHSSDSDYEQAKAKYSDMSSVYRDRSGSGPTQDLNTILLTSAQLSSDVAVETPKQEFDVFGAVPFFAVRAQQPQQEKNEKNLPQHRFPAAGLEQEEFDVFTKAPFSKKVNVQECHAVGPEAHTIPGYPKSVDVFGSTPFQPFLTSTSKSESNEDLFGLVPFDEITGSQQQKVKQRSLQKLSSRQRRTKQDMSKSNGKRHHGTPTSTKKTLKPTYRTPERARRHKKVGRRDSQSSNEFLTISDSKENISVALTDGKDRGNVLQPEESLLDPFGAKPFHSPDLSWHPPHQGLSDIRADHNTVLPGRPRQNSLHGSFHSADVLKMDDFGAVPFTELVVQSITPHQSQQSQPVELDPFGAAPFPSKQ
# T2 sequence (P31749 whole entry): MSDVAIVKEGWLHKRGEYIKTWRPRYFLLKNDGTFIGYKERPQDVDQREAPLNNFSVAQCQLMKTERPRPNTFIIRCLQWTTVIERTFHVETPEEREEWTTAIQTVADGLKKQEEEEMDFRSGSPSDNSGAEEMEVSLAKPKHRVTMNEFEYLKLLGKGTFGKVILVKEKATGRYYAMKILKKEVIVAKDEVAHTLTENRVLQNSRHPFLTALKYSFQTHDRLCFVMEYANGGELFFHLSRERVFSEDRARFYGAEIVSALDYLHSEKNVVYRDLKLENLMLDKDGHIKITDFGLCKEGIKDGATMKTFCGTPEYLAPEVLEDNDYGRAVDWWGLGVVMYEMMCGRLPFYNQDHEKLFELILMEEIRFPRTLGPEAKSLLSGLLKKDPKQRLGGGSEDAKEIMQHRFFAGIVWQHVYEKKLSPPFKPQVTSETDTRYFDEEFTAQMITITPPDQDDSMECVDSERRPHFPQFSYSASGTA
smiles,measurement,setting,value
"Clc1cc(NCC2CC2)c2ncc(-c3ccc4[nH]ncc4c3)n2n1 [compound 2, 6-Chloro-N-(cyclopropylmethyl)-3-(1H-indazol-5-yl)imidazo[1,2-b]pyridazin-8-amine]",remaining binding at 1 µM,ACVR2A,100%
same,remaining binding at 1 µM,AKT1,98%
same,remaining binding at 1 µM,BIKE,34%
same,remaining binding at 1 µM,BRAF,98%
same,remaining binding at 1 µM,CDK7,68%
same,remaining binding at 1 µM,CDKL5,100%
same,remaining binding at 1 µM,DRAK1,18%
same,remaining binding at 1 µM,FLT3(D835H),13%
same,remaining binding at 1 µM,LIMK1,100%
same,remaining binding at 1 µM,MAPKAPK2,92%
same,remaining binding at 1 µM,QSK,78%
same,remaining binding at 1 µM,STK16,100%
same,remaining binding at 1 µM,STK33,47%
O=C(CN1CCOCC1)N[C@H]1CC[C@H](Nc2cc(Cl)nn3c(-c4ccc5[nH]ncc5c4)cnc23)CC1 [compound 26],remaining binding at 1 µM,ACVR2A,100%
same,remaining binding at 1 µM,AKT1,100%
same,remaining binding at 1 µM,BIKE,13%
same,remaining binding at 1 µM,BRAF,98%
same,remaining binding at 1 µM,CDK7,16%
same,remaining binding at 1 µM,CDKL5,46%
same,remaining binding at 1 µM,DRAK1,20%
same,remaining binding at 1 µM,FLT3(D835H),5.5%
same,remaining binding at 1 µM,LIMK1,97%
same,remaining binding at 1 µM,MAPKAPK2,100%
same,remaining binding at 1 µM,QSK,82%
same,remaining binding at 1 µM,STK16,83%
same,remaining binding at 1 µM,STK33,25%
"CN1CCC(CNc2cc(Cl)nn3c(-c4cc5nc(Nc6ccccc6)[nH]c5cc4F)cnc23)CC1 [compound 31, 6-Chloro-3-(6-fluoro-2-(phenylamino)-1H-benzo[d]imidazol-5-yl)-N-((1-methylpiperidin-4-yl)methyl)imidazo[1,2-b]pyridazin-8-amine]",remaining binding at 1 µM,ACVR2A,97%
same,remaining binding at 1 µM,AKT1,100%
same,remaining binding at 1 µM,BIKE,91%
same,remaining binding at 1 µM,BRAF,96%
same,remaining binding at 1 µM,CDK7,61%
same,remaining binding at 1 µM,CDKL5,96%
same,remaining binding at 1 µM,DRAK1,91%
same,remaining binding at 1 µM,FLT3(D835H),90%
same,remaining binding at 1 µM,LIMK1,98%
same,remaining binding at 1 µM,MAPKAPK2,100%
same,remaining binding at 1 µM,QSK,100%
same,remaining binding at 1 µM,STK16,96%
same,remaining binding at 1 µM,STK33,100%
